{
  "source": "patent US7556796B2",
  "about": "“Directed complementation” (AVEO Pharmaceuticals, Inc., priority 2005, dated 2009)",
  "key": {"[1]": {"tested_on": "propagated tumors from Her2-dependent inducible spontaneous breast tumors", "assay": "Drug response assay with propagated Her2-dependent primary breast tumors", "format": "in vivo, mouse", "settings": "15 or 30 mg/kg, three doses at 5-day intervals, one week after last dosing", "protocol": "From each primary tumor, about 0.1 million cells/site were injected sub-cutaneously into 30 sites on immunocompromised mice, which were then fed with doxycycline water. Each mouse received two injections, one on each side of its back (subcutaneous). Thus, one primary tumor was expanded into 30 propagated tumors onto 15 mice, each of the mice developing two tumors on its back. Out of these thirty tumors, 10 tumor-bearing mice were treated with vehicle (5 parts Tween-80, 5 parts absolute ethyl alcohol, 90 parts 5% dextrose), another 10 tumor bearing-mice were treated with 15 mg/kg docetaxel (Biochemika, cat. No. 01885), and the remaining 10 tumor-bearing mice were treated with 30 mg/kg docetaxel (which was already determined to be near MTD for this drug). In total, five primary tumors were expanded to 150 tumors in 75 animals.\nWhen the tumors reached approximately 5 mm^3 in size, the treatments were begun. The animals were given three doses with 5-day intervals. The experiment was terminated one week after the final dosing. Among propagated tumors derived from any given primary tumor, uniformity in terms of latency, growth rate and drug response was expected (intra-tumoral uniformity). In contrast, among propagated tumors derived from different primary tumors variation in terms of growth rate, latency and drug response was expected (inter-tumoral variation). […]"}, "[2]": {"assay": "Maximum tolerated dose (previously determined)", "settings": "mouse, in vivo; already determined to be near MTD for this drug"}},
  "data": [
    {"smiles": "CC(=O)O[C@@]12CO[C@@H]1C[C@H](O)[C@@]1(C)C(=O)[C@H](O)C3=C(C)[C@@H](OC(=O)[C@H](O)[C@@H](NC(=O)OC(C)(C)C)c4ccccc4)C[C@@](O)([C@@H](OC(=O)c4ccccc4)[C@H]21)C3(C)C", "note": "[docetaxel]", "values": [
      {"measurement": "drug response (tumor size vs vehicle)", "setting": "[1]; propagated tumors from one of the five primary tumors", "result": "significant reduction in tumor growth"},
      {"measurement": "drug response (tumor size vs vehicle)", "setting": "[1]; propagated tumors from the remaining four of five primary tumors", "result": "did not show any effect"},
      {"measurement": "MTD", "setting": "[2]", "result": "~30", "unit": "mg/kg"}
    ]}
  ]
}
